This note sets out measurements from US20230093099A1, “COMPOUNDS AND METHODS OF TREATING CANCERS” (CULLGEN (SHANGHAI), INC., priority 2019, published 2023).

The term IC50 denotes the concentration at which inhibition is half-maximal.

The assay concerns RS4;11 cells. The experiment in a line: Cell viability assay (CellTiter-Glo) in RS4;11 cells. The class given is cell-based. As to conditions: Homo sapiens, 72 h; RS4;11 cells; cell viability, 3 days, CellTiter-Glo; read-out: IC50. The essentials: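 RS4;11 cells seeded at 5000 per well, exposed for 3 days to 8- or 12-point 3-fold serial dilutions. Viability read by CellTiter-Glo luminescence; IC50 fitted by nonlinear least-squares regression.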
For orientation: ATP-based viability assays read luminescence as a measure of living cells.
As for `Cc1cnc(Nc2ccc(N3CCN(CC(=O)NCCCCCCCCNc4cccc5c4C(=O)N(C4CCC(=O)NC4=O)C5=O)CC3)cc2)nc1Nc1cccc(S(=O)(=O)NC(C)(C)C)c1` (stereo not drawn) [JA-096, 2-(4-(4-((4-((3-(N-(tert-Butyl)sulfamoyl)phenyl)amino)-5-methylpyrimidin-2-yl)amino)phenyl)piperazin-1-yl)-N-(8-((2-(2,6-dioxopiperidin-3-yl)-1,3-dioxoisoindolin-4-yl)amino)octyl)acetamide], the IC50 was 0.159 µM.
Take `Cc1cnc(Nc2ccc(N3CCN(CC(=O)NCC(=O)N[C@H](C(=O)N4C[C@H](O)C[C@H]4C(=O)NCc4ccc(-c5scnc5C)cc4)C(C)(C)C)CC3)cc2)nc1Nc1cccc(S(=O)(=O)NC(C)(C)C)c1` [JA-097, (2S,4R)-1-((S)-2-(2-(2-(4-(4-((4-((3-(N-(tert-Butyl)sulfamoyl)phenyl)amino)-5-methylpyrimidin-2-yl)amino)phenyl)piperazin-1-yl)acetamido)acetamido)-3,3-dimethylbutanoyl)-4-hydroxy-N-(4-(4-methylthiazol-5-yl)benzyl)pyrrolidine-2-carboxamide]: the IC50 was more than 10 µM.
Then `Cc1cnc(Nc2ccc(N3CCN(CC(=O)NCCC(=O)N[C@H](C(=O)N4C[C@H](O)C[C@H]4C(=O)NCc4ccc(-c5scnc5C)cc4)C(C)(C)C)CC3)cc2)nc1Nc1cccc(S(=O)(=O)NC(C)(C)C)c1` [JA-098, (2S,4R)-1-((S)-2-(3-(2-(4-(4-((4-((3-(N-(tert-Butyl)sulfamoyl)phenyl)amino)-5-methylpyrimidin-2-yl)amino)phenyl)piperazin-1-yl)acetamido)propanamido)-3,3-dimethylbutanoyl)-4-hydroxy-N-(4-(4-methylthiazol-5-yl)benzyl)pyrrolidine-2-carboxamide], with more than 10 µM.
Consider `Cc1cnc(Nc2ccc(N3CCN(CC(=O)NCCCC(=O)N[C@H](C(=O)N4C[C@H](O)C[C@H]4C(=O)NCc4ccc(-c5scnc5C)cc4)C(C)(C)C)CC3)cc2)nc1Nc1cccc(S(=O)(=O)NC(C)(C)C)c1` [JA-099, (2S,4R)-1-((S)-2-(4-(2-(4-(4-((4-((3-(N-(tert-Butyl)sulfamoyl)phenyl)amino)-5-methylpyrimidin-2-yl)amino)phenyl)piperazin-1-yl)acetamido)butanamido)-3,3-dimethylbutanoyl)-4-hydroxy-N-(4-(4-methylthiazol-5-yl)benzyl)pyrrolidine-2-carboxamide], for which the IC50 was 3.7 µM.
Consider `Cc1cnc(Nc2ccc(N3CCN(CC(=O)NCCCCC(=O)N[C@H](C(=O)N4C[C@H](O)C[C@H]4C(=O)NCc4ccc(-c5scnc5C)cc4)C(C)(C)C)CC3)cc2)nc1Nc1cccc(S(=O)(=O)NC(C)(C)C)c1` [JA-100, (2S,4R)-1-((S)-2-(5-(2-(4-(4-((4-((3-(N-(tert-Butyl)sulfamoyl)phenyl)amino)-5-methylpyrimidin-2-yl)amino)phenyl)piperazin-1-yl)acetamido)pentanamido)-3,3-dimethylbutanoyl)-4-hydroxy-N-(4-(4-methylthiazol-5-yl)benzyl)pyrrolidine-2-carboxamide], for which the IC50 is more than 10 µM.
For `Cc1cnc(Nc2ccc(N3CCN(CC(=O)NCCCCCC(=O)N[C@H](C(=O)N4C[C@H](O)C[C@H]4C(=O)NCc4ccc(-c5scnc5C)cc4)C(C)(C)C)CC3)cc2)nc1Nc1cccc(S(=O)(=O)NC(C)(C)C)c1` [JA-101, (2S,4R)-1-((S)-2-(6-(2-(4-(4-((4-((3-(N-(tert-Butyl)sulfamoyl)phenyl)amino)-5-methylpyrimidin-2-yl)amino)phenyl)piperazin-1-yl)acetamido)hexanamido)-3,3-dimethylbutanoyl)-4-hydroxy-N-(4-(4-methylthiazol-5-yl)benzyl)pyrrolidine-2-carboxamide], the IC50 was more than 10 µM.
Then `Cc1cnc(Nc2ccc(N3CCN(CC(=O)NCCCCCCC(=O)N[C@H](C(=O)N4C[C@H](O)C[C@H]4C(=O)NCc4ccc(-c5scnc5C)cc4)C(C)(C)C)CC3)cc2)nc1Nc1cccc(S(=O)(=O)NC(C)(C)C)c1` [JA-102, (2S,4R)-1-((S)-2-(7-(2-(4-(4-((4-((3-(N-(tert-Butyl)sulfamoyl)phenyl)amino)-5-methylpyrimidin-2-yl)amino)phenyl)piperazin-1-yl)acetamido)heptanamido)-3,3-dimethylbutanoyl)-4-hydroxy-N-(4-(4-methylthiazol-5-yl)benzyl)pyrrolidine-2-carboxamide], with more than 10 µM.
With `Cc1cnc(Nc2ccc(N3CCN(CC(=O)NCCCCCCCC(=O)N[C@H](C(=O)N4C[C@H](O)C[C@H]4C(=O)NCc4ccc(-c5scnc5C)cc4)C(C)(C)C)CC3)cc2)nc1Nc1cccc(S(=O)(=O)NC(C)(C)C)c1` [JA-103, (2S,4R)-1-((S)-2-(8-(2-(4-(4-((4-((3-(N-(tert-Butyl)sulfamoyl)phenyl)amino)-5-methylpyrimidin-2-yl)amino)phenyl)piperazin-1-yl)acetamido)octanamido)-3,3-dimethylbutanoyl)-4-hydroxy-N-(4-(4-methylthiazol-5-yl)benzyl)pyrrolidine-2-carboxamide] the figure was 8.96 µM.
With `Cc1cnc(Nc2ccc(N3CCN(CC(=O)NCCCCCCCCC(=O)N[C@H](C(=O)N4C[C@H](O)C[C@H]4C(=O)NCc4ccc(-c5scnc5C)cc4)C(C)(C)C)CC3)cc2)nc1Nc1cccc(S(=O)(=O)NC(C)(C)C)c1` [JA-104, (2S,4R)-1-((S)-2-(9-(2-(4-(4-((4-((3-(N-(tert-Butyl)sulfamoyl)phenyl)amino)-5-methylpyrimidin-2-yl)amino)phenyl)piperazin-1-yl)acetamido)nonanamido)-3,3-dimethylbutanoyl)-4-hydroxy-N-(4-(4-methylthiazol-5-yl)benzyl)pyrrolidine-2-carboxamide] the figure was more than 10 µM; with `Cc1cnc(Nc2ccc(N3CCN(CC(=O)NCCCCCCCCCC(=O)N[C@H](C(=O)N4C[C@H](O)C[C@H]4C(=O)NCc4ccc(-c5scnc5C)cc4)C(C)(C)C)CC3)cc2)nc1Nc1cccc(S(=O)(=O)NC(C)(C)C)c1` [JA-105, (2S,4R)-1-((S)-2-(10-(2-(4-(4-((4-((3-(N-(tert-Butyl)sulfamoyl)phenyl)amino)-5-methylpyrimidin-2-yl)amino)phenyl)piperazin-1-yl)acetamido)decanamido)-3,3-dimethylbutanoyl)-4-hydroxy-N-(4-(4-methylthiazol-5-yl)benzyl)pyrrolidine-2-carboxamide], more than 10 µM; with `Cc1cnc(Nc2ccc(N3CCN(CC(=O)NCCCCCCCCCCC(=O)N[C@H](C(=O)N4C[C@H](O)C[C@H]4C(=O)NCc4ccc(-c5scnc5C)cc4)C(C)(C)C)CC3)cc2)nc1Nc1cccc(S(=O)(=O)NC(C)(C)C)c1` [JA-106, (2S,4R)-1-((S)-2-(11-(2-(4-(4-((4-((3-(N-(tert-Butyl)sulfamoyl)phenyl)amino)-5-methylpyrimidin-2-yl)amino)phenyl)piperazin-1-yl)acetamido)undecanamido)-3,3-dimethylbutanoyl)-4-hydroxy-N-(4-(4-methylthiazol-5-yl)benzyl)pyrrolidine-2-carboxamide], more than 10 µM.
Take `Cc1cnc(Nc2ccc(N3CCN(C(=O)CCCCNc4cccc5c4C(=O)N(C4CCC(=O)NC4=O)C5=O)CC3)cc2)nc1Nc1cccc(S(=O)(=O)NC(C)(C)C)c1` (stereo not drawn) [JA-107, N-(tert-Butyl)-3-((2-((4-(4-(5-((2-(2,6-dioxopiperidin-3-yl)-1,3-dioxoisoindolin-4-yl)amino)pentanoyl)piperazin-1-yl)phenyl)amino)-5-methylpyrimidin-4-yl)amino)benzenesulfonamide]: the IC50 was 2.27 µM.
